Key:
[1] = system: cathepsin L; assay: Inhibition of activated cathepsin L secreted in DU-145 cell conditioned media; assay type: cell-based; conditions: compound 20 μM, replicate samples a-c
Method: (§1) A prostrate carcinoma derived cell line (DU-145) was maintained in free phenol red DMEM supplemented with 10% fetal bovine serum, 1% glutamine, 1% glutamax, 1% Penicillin-Streptomycin and 1 mM sodium pyruvate, at 37° C. in an atmosphere of 95% air/5% CO2. DU145 was plated at 4×10^6 cells/10 cm Petri dish for dense, super confluent density. These cultures were incubated for 3 days before collection. Twenty-four hours prior to harvesting, cells were fed with serum-free media or serum-free media containing inhibitors at a final concentration of 20 μM. On the day of harvesting, the serum-free medium was collected for assay of Cathepsin L activity secreted in the medium. The cells were rinsed in cold PBS (pH 7.2) and collected in cold PBS containing […]. The cells were lysed using a Sonicator (Misonix 3000) at medium setting with pauses at 0° C. for temperature equilibration. Then the homogenate was centrifuged at 13,000×g for 20 min and the supernatant saved. […] Fluorescence was measured in a Fluoro Max 2 (Jobin Yvon) spectrofluorometer at an excitation wavelength of 355 nm and an emission wavelength of 460 nm. The substrate is hydrolyzed by cathepsin L and to a smaller extent by cathepsin B, therefore the activity is referred to as cathepsin L+B activity. Data analysis was performed using Prism software (GraphPad version 4). Data corresponding to cathepsin L activity (after activation) in cell conditioned media in the presence of Compound 14 (20 μM) is summarized in Table 3 below. Data corresponding to cathepsin L activity (after activation) in cell conditioned media in the presence of Compound 27 (20 μM) is summarized in Table 4 below.

[2] = target: Cat B (Homo sapiens, UniProt P07858); assay: Cathepsin B inhibition in vitro; assay type: biochemical; conditions: Table A; read-out: Cat B IC50
Method: For in vitro cysteine protease inhibition determinations, a compound's effectiveness can be given by an IC50 value. In these assays, the enzyme to be inhibited (e.g., a cruzain or cruzipain, a rhodesain, a brucipain, a congopain, a falcipain, CPB2.8 Delta CTE, a cathepsin-L, cathepsin-B, a cathepsin-H, a cathepsin-K, a cathepsin-S) is first incubated with varying concentrations (about 20-50,000 nM) of a test compound. To this is added a short peptide substrate of the enzyme of 1 to 10 amino acids, usually a di- or tri-peptide substrate, which is labeled with either a fluorogenic or chromogenic moiety. An exemplary chromogenic moiety is p-nitro-anilide (pNA). […] Exemplary peptide substrates include Phe-Arg, Arg-Arg, Phe-Arg-X (X=Ala, Arg), and Phe-X-Ser-Arg-Gln (X=Arg, 4-aminomethyl-phenylalanine (Arm), 4-aminomethyl-N-isopropyl-phenylalanin-e (laf), 4-piperidinyl-alanine (Ppa) or 4-aminocyclohexyl-alanine (Aca)). Cleavage of the labeled substrate induces a chromogenic or fluorescent signal that is measured using spectrophotometer or a spectrofluorometer, respectively. Signals induced in the presence of varying concentrations of test compound are measured in comparison to a positive control of enzyme and substrate and a negative control of enzyme in diluent (e.g., DMSO). Spontaneous cleavage of substrate is measured in controls with substrate alone. IC50 values are determined graphically using compound inhibitor concentrations in the linear portion of a plot of inhibition versus log [I].

[3] = target: Cruzain (Trypanosoma cruzi, UniProt P25779); assay: biochemical; assay type: biochemical; conditions: Table A; 0.1 nM cruzain, pH 5.50, 25° C., 10 μM Z-Phe-Arg-AMC
Sequence of Cruzain (P25779 123-467): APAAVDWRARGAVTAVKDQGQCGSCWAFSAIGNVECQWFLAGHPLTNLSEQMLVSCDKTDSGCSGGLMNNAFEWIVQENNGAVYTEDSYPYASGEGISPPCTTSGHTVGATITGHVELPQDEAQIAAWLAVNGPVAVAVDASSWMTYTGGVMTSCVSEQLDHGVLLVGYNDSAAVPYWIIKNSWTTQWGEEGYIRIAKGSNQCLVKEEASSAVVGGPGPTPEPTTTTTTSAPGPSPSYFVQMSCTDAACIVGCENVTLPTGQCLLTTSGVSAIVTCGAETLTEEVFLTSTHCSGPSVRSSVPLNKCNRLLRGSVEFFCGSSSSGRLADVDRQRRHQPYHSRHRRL
Method: Cruzain (0.1 nM) in 100 mM sodium acetate buffer (pH 5.50) containing 5 mM DTT was preincubated for 5 min at 25° C. with inhibitor.

[4] = target: T1, Human liver cathepsin L (Homo sapiens, UniProt P07711); assay: Cathepsin L inhibition in vitro (Z-FR-AMC fluorescence); assay type: biochemical; conditions: Table A; 1 nM human liver cathepsin L, pH 5.5, 25° C., 50 μM Z-FR-AMC; read-out: Cat L IC50
T1 construct: from tissue; host or cells: human liver
T1 sequence (P07711 114-333): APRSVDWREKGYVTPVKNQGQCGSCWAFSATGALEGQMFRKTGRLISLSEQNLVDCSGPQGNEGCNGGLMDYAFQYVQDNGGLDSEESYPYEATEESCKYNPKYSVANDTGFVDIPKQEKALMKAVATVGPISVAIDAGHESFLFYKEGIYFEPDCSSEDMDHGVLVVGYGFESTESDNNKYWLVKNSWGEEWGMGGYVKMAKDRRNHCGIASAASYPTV
Method: Human liver cathepsin L (1 nM) was incubated in 50 mM sodium acetate buffer, pH 5.5 containing 1 mM EDTA, 2 mM DTT, 0.001% (v/v) brij 35 with potential inhibitors at 20 different concentrations (from 0.05 nM to 50 μM) at 25° C. for 5 minutes before 100 μL substrate (benzyloxycarbonyl-L-phenylalanyl-L-arginyl-7-amido-4-methylcoumarin, abbreviated as Z-FR-AMC, 50 μM in final assay condition) was added to the enzyme-inhibitor mixture; total volume was 200 μL. Controls were performed using enzyme alone, substrate alone, and enzyme with DMSO. […] Spectra were taken at 3-sec intervals for 3 minutes. IC50 values were determined by non-linear regression analysis using vo(inh)=VMAX/{1+10(logIC50−x)*Hillslope} and Prism software (GraphPad).

[5] = system: cathepsin L; assay: Inhibition of activated cathepsin L in DU-145 cell lysates; assay type: cell-based; conditions: DU-145 cell lysates preincubated for 24 h with compound, following removal of media, replicate samples a-c; for activity (cathepsin L activity after activation): control 6.93E−03; for cps (cathepsin L activity after activation): control 26950
Method: as §1, with “cell lysates preincubated for 24 h with” for “cell conditioned media in the presence of”, “14 and following the removal of media” for “14 (20 μM)”, “Table 5” for “Table 3”, “27 and following the removal of media” for “27 (20 μM)”, “Table 6” for “Table 4”

NC(=S)NN=C(c1cccc(Br)c1)c1cccc(Br)c1 [Compound 14, Bis(3-bromophenyl) ketone thiosemicarbazone]
activity (cathepsin L activity after activation) ([1]; control 1.50E−03, listed as 14a): 0.000186 µM/s | activity (cathepsin L activity after activation) ([1]; control 1.50E−03, listed as 14b): 0.000165 µM/s | activity (cathepsin L activity after activation) ([1]; control 1.50E−03, listed as 14c): 0.000127 µM/s | cps (cathepsin L activity after activation) ([1]; control 5848, listed as 14a): 722.5 cps | cps (cathepsin L activity after activation) ([1]; control 5848, listed as 14b): 641.2 cps | cps (cathepsin L activity after activation) ([1]; control 5848, listed as 14c): 495 cps | IC50 [2]: > 3000 nM | IC50 [3]: 24 nM | IC50 [4]: 1.5 nM | activity (cathepsin L activity after activation) ([5]; listed as 14a): 0.00161 µM/s | activity (cathepsin L activity after activation) ([5]; listed as 14b): 0.00144 µM/s | activity (cathepsin L activity after activation) ([5]; listed as 14c): 0.00129 µM/s | cps (cathepsin L activity after activation) ([5]; listed as 14a): 6259 cps | cps (cathepsin L activity after activation) ([5]; listed as 14b): 5608 cps | cps (cathepsin L activity after activation) ([5]; listed as 14c): 5003 cps

From patent publication US8173696B2, “Inhibitors of cysteine proteases and methods of use thereof” (Baylor University, priority 2007, dated 2012)
